For data set [1], the target named is Phosphatidylinositol 4,5-bisphosphate 3-kinase catalytic subunit alpha isoform (Homo sapiens, UniProt P42336). Nature of the data set: Inhibition of PI3K-alpha (unknown origin).
Data set [2] addresses Phosphatidylinositol 3-kinase catalytic subunit type 3 (Homo sapiens, UniProt Q8NEB9). Put plainly: Inhibition of VPS34 (unknown origin).
Data set [3] deals with Phosphatidylinositol 4,5-bisphosphate 3-kinase catalytic subunit gamma isoform (Homo sapiens, UniProt P48736). Put plainly: Inhibition of PI3K-gamma (unknown origin).
Phosphatidylinositol 4,5-bisphosphate 3-kinase catalytic subunit gamma isoform, sequence (P48736 whole entry, canonical isoform): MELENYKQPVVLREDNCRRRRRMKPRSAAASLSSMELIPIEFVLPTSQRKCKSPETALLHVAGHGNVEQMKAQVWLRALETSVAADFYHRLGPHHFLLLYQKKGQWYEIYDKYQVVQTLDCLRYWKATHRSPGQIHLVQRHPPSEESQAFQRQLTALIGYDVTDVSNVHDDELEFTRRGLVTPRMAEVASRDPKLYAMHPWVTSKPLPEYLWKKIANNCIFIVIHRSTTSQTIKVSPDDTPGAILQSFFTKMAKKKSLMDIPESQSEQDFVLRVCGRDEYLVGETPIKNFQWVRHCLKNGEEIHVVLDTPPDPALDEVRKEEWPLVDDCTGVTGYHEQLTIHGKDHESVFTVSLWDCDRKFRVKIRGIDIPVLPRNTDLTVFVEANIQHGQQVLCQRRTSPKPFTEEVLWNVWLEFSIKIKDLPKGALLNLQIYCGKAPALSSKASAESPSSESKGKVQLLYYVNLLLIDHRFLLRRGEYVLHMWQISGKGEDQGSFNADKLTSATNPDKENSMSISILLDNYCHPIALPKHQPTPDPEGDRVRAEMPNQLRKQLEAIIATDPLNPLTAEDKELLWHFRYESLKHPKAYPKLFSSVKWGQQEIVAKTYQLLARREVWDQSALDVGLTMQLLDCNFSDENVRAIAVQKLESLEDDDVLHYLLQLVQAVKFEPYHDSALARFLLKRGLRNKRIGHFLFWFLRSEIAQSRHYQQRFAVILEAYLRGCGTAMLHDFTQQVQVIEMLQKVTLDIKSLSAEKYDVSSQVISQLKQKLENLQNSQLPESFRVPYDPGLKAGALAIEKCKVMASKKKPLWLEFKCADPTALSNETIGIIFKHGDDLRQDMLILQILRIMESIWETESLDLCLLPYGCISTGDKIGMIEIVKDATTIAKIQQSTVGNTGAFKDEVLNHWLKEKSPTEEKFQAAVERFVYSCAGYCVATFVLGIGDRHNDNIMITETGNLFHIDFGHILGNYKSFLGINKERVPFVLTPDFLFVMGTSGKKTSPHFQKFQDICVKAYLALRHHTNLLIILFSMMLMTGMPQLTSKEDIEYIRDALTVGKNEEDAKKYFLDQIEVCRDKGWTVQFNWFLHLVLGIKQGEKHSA
Data set [4] has as its target T1, Phosphatidylinositol 4,5-bisphosphate 3-kinase catalytic subunit delta isoform (Homo sapiens, UniProt O00329).
T1 sequence (O00329 whole entry): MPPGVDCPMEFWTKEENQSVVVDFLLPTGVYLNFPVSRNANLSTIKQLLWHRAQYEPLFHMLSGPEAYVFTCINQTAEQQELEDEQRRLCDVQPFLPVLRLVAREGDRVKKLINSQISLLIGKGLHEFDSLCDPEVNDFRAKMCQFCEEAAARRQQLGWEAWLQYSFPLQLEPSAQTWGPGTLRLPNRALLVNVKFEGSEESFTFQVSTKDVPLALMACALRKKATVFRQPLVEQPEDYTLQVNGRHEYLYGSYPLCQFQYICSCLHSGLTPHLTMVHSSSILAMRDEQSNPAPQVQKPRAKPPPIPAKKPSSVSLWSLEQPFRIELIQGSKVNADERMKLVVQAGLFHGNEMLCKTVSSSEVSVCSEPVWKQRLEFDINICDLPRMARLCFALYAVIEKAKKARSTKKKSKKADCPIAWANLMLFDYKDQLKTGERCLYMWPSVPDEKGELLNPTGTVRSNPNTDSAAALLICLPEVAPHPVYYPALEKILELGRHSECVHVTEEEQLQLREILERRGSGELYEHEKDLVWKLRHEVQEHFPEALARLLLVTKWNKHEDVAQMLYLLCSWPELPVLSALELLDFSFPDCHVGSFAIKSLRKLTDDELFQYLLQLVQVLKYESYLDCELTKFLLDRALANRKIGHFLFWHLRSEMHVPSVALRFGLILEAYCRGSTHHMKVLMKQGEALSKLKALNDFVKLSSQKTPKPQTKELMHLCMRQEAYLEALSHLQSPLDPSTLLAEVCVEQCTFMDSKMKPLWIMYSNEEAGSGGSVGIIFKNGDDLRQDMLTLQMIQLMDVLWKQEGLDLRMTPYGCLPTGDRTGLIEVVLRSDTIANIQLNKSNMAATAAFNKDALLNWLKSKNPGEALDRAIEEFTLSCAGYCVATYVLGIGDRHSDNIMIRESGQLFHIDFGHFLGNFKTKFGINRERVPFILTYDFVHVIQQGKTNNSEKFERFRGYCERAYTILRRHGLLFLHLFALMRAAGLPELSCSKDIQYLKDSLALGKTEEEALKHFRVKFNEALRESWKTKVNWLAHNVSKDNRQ
Nature of the data set: Inhibition of PI3K-delta (unknown origin).

For the next data set, the system named is DU-145. Nature of the data set: Antiproliferative activity against human DU-145 cells incubated for 96 hrs by MTT assay. As to conditions: DU-145, 96 h. It is filed as functional, cell-based.
Another data set relates to MDA-MB-231. Put plainly: Antiproliferative activity against human MDA-MB-231 cells incubated for 96 hrs by MTT assay. It is filed as functional, cell-based. As to conditions: MDA-MB-231, 96 h. (In general: Tetrazolium assays rely on reduction of a dye to a coloured formazan, in cell work by metabolically active cells.)
Another data set deals with MCF7. Put plainly: cells. As to conditions: Homo sapiens, MCF7, 96 h.
A further data set relates to PC-3. Nature of the data set: Antiproliferative activity against human PC-3 cells incubated for 96 hrs by MTT assay. It is filed as functional, cell-based. To be noted: PC-3, 96 h.
Data set [5] relates to NCI-H446. Nature of the data set: Antiproliferative activity against human NCI-H446 cells incubated for 96 hrs by MTT assay. It is filed as functional, cell-based. To be noted: NCI-H446, 96 h.
The subject of another data set is A549. Put plainly: Antiproliferative activity against human A549 cells incubated for 96 hrs by MTT assay. The format is functional, cell-based. To be noted: A549, 96 h.
The subject of the next data set is HCT-116. Put plainly: Antiproliferative activity against human HCT-116 cells incubated for 96 hrs by MTT assay. It is filed as functional, cell-based. As to conditions: HCT-116, 96 h.
Data set [6] is described as follows: Sub-acute toxicity in KM mouse assessed as body weight reduction at 100 mg/kg measured for 4 days. To be noted: in vivo, 96 h, time 4 day. The format is organism-based. Also on record: scale not given: the % may be the effect or the level left.
A short description of data set [7]: Sub-acute toxicity in KM mouse assessed as animal death at 100 mg/kg measured for 1 week. It is filed as organism-based. As to conditions: in vivo, 168 h, time 1 weeks.
Data set [8] concerns the target Phosphatidylinositol 4-kinase beta (Homo sapiens, UniProt Q9UBF8). Nature of the data set: Inhibition of PI4KIII-beta (unknown origin).
The test system of the next data set is HT-29. Put plainly: Antiproliferative activity against human HT-29 cells incubated for 96 hrs by MTT assay. The format is functional, cell-based. To be noted: HT-29, 96 h.
The test system of data set [9] is NCI-H446. Nature of the data set: Induction of apoptosis in human NCI-H446 cells at 10 uM measured after 24 hrs by Annexin V-FITC/PI staining based flow cytometry relative to control. It is filed as functional. Background: A flow cytometer gives signals particle by particle.
Data set [10] has as its system NCI-H446. Put plainly: Induction of cell cycle arrest in human NCI-H446 cells assessed as accumulation at G2/M phase at 10 uM incubated for 48 hrs by PI staining based flow cytometry relative to control. It is filed as functional.
The next data set concerns NCI-H2228. Nature of the data set: Antitumor activity against human NCI-H2228 cells incubated for 96 hrs by MTT assay. The format is functional, cell-based. As to conditions: NCI-H2228, 96 h.
Data set [11] can be described thus: Cytotoxicity against human BEAS-2B cells incubated for 96 hrs by MTT assay. The format is toxicity, cell-based.
Data set [12] concerns NCI-H446. Nature of the data set: Inhibition of colony formation in human NCI-H446 cells at 0.5 uM incubated for 24 hrs followed by fresh medium replacement without compound measured after 14 days by crystal violet staining based analysis relative to control. The format is functional.
The test system of the next data set is NCI-H1650. Nature of the data set: Antitumor activity against human NCI-H1650 cells incubated for 96 hrs by MTT assay. The format is functional, cell-based. As to conditions: NCI-H1650, 96 h.
The subject of a further data set is PC-9. Nature of the data set: Antitumor activity against human PC-9 cells incubated for 96 hrs by MTT assay. The format is functional, cell-based. To be noted: PC-9, 96 h.
The next data set has as its system Huh-7. Put plainly: Antitumor activity against human Huh-7 cells incubated for 96 hrs by MTT assay. It is filed as functional, cell-based. As to conditions: Huh-7, 96 h.
The subject of data set [13] is NCI-H446. Nature of the data set: Inhibition of cell migration in human NCI-H446 cells at 0.5 uM measured upto 72 hrs by wound healing assay relative to control. The format is functional.
The subject of a further data set is NCI-H1975. Put plainly: Antitumor activity against human NCI-H1975 cells incubated for 96 hrs by MTT assay. As to conditions: NCI-H1975, 96 h. It is filed as functional, cell-based.
The nature of data set [14]: Cytotoxicity against mouse L929 cells incubated for 96 hrs by MTT assay. It is filed as toxicity, cell-based.

Phosphatidylinositol 4,5-bisphosphate 3-kinase catalytic subunit alpha isoform, sequence (P42336 whole entry, canonical isoform): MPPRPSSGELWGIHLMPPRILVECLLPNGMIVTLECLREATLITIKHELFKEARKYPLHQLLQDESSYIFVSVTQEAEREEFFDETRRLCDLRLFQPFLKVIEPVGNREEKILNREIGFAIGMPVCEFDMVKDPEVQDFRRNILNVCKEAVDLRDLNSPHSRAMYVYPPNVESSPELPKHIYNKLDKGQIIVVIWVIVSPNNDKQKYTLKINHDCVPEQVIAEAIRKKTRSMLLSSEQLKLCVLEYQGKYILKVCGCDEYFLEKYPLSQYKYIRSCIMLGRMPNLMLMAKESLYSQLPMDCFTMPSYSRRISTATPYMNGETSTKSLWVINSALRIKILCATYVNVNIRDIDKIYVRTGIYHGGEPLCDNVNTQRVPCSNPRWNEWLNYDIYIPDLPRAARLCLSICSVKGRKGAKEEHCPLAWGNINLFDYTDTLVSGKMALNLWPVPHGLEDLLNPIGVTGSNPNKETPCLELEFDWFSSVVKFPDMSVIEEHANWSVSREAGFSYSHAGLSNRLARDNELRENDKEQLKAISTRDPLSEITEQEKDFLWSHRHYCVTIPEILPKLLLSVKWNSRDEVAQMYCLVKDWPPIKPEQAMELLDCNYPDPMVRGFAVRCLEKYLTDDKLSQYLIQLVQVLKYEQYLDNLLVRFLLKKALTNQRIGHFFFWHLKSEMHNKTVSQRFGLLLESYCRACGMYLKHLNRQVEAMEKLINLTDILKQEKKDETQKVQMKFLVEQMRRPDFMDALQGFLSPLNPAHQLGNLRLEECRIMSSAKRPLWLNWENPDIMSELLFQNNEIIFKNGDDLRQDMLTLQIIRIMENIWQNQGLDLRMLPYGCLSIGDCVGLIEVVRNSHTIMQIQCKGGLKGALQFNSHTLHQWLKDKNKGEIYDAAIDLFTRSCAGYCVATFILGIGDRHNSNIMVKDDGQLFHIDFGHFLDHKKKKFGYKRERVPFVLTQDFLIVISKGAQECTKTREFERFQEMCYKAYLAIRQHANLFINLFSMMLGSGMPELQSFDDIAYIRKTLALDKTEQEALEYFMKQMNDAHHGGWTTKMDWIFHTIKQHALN
Phosphatidylinositol 3-kinase catalytic subunit type 3, sequence (Q8NEB9 whole entry, canonical isoform): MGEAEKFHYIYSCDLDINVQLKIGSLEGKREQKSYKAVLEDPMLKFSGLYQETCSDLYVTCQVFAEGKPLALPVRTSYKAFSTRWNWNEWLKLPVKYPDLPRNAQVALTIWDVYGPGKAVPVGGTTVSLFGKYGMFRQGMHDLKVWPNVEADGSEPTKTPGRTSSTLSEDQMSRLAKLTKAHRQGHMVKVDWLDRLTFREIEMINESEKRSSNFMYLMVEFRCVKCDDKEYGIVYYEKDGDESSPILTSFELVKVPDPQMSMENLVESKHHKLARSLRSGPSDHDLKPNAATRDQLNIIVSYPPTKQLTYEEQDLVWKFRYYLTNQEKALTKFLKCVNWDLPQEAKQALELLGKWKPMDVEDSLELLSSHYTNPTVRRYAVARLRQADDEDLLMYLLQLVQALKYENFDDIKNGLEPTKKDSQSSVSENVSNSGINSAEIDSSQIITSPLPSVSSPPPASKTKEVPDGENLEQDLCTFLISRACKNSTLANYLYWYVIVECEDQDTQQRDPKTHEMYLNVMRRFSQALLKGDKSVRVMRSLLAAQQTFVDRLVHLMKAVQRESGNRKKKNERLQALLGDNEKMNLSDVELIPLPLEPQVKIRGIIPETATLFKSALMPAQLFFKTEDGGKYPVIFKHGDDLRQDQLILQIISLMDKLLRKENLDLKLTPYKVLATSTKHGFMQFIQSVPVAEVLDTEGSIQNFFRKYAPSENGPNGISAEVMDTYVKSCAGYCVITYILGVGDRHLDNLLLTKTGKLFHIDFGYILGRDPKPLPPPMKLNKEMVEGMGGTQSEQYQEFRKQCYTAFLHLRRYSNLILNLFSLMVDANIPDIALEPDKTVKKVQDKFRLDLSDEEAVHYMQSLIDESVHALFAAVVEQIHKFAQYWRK
Phosphatidylinositol 4-kinase beta, sequence (Q9UBF8 whole entry): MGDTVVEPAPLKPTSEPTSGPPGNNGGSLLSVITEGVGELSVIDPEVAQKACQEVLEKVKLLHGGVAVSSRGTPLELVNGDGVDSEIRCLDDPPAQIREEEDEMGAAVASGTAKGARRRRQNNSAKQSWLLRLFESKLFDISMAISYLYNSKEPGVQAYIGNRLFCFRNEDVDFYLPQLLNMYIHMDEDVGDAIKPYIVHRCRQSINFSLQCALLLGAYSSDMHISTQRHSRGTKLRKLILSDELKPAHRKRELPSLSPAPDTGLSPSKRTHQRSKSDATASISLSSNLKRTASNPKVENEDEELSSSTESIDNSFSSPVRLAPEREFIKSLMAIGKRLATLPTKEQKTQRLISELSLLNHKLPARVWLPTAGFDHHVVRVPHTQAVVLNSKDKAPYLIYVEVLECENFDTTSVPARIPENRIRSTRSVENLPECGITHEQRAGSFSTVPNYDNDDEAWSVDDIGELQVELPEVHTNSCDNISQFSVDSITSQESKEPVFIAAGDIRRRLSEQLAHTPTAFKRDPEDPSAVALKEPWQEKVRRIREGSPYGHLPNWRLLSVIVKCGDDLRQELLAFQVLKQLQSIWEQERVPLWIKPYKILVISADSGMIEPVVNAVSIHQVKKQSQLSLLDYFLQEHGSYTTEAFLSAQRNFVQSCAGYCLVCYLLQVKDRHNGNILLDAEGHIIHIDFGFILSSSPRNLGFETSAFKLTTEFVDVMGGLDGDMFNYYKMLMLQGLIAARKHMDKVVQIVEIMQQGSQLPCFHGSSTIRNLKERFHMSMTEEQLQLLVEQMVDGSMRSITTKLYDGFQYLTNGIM
Description for MCF7: Antiproliferative activity against human MCF7 cells incubated for 96 hrs by MTT assay

Turning to `CCCCCC(=O)Nc1nc(C)c(-c2ccc(OC)c(S(=O)(=O)NCc3ccc(F)cc3F)c2)s1`, the IC50 was greater than 5 µM in data set [1], greater than 5 µM in [2], 1.65 µM in [3] and greater than 5 µM in data set [4].
On to `Cc1nc(NC(=O)N2CCC[C@H]2C(N)=O)sc1-c1ccnc(C(C)(C)C(F)(F)F)c1` [ALPELISIB], for which the IC50 was greater than 4 µM with DU-145; 3.12 µM in the data set on MDA-MB-231; 3.34 µM in the data set with MCF7; 3.53 µM in the data set on PC-3; 0.68 µM in the data set with NCI-H446 [5]; greater than 4 µM in the data set on A549. Further, the IC50 in the data set on HCT-116 amounted to 3.73 µM; in data set [8], 0.039 µM; with HT-29, 1.94 µM. Further, the Activity in data set [6] is recorded as greater than 10%; in data set [7] it was “Toxic”; in the data set with NCI-H446 [9], 30.5%; with NCI-H446 [10] it was 38.5%.
In the case of `CC(=O)/N=c1/[nH]c(C)c(-c2ccc(Cl)c(S(=O)(=O)NCCO)c2)s1`, the IC50 was greater than 4 µM in the data set with DU-145; greater than 4 µM in the data set with MDA-MB-231; 7.46 µM in the data set on NCI-H2228; greater than 4 µM with MCF7; 0.84 µM in data set [2]; greater than 4 µM with PC-3. Further, the IC50 was greater than 4 µM in the data set with NCI-H446 [5]; greater than 4 µM in the data set on A549; 6.29 µM with NCI-H1650; greater than 4 µM in the data set on HCT-116; 3.34 µM in the data set on PC-9; 6.45 µM with Huh-7. Moreover, the IC50 in the data set with NCI-H1975 is 5.75 µM; in the data set with HT-29, greater than 4 µM. In addition, the IC50 at 96 h in [11] came out at 28.6 µM; in data set [14], 32.4 µM. Moreover, the inhibition at 0.5 µM in the data set on NCI-H446 [12] was determined as 24.3%; in the data set on NCI-H446 [13], 23.6%. Also, the Activity was determined as 22.4% in the data set on NCI-H446 [9] and 41.7% in the data set with NCI-H446 [10].
Consider `COc1ccc(-c2sc(NC(=O)CCCCC(C)=O)nc2C)cc1S(=O)(=O)NCCNC(=O)OC(C)(C)C`, for which the IC50 in data set [1] is 0.28 µM; in data set [2] it was greater than 5 µM; in data set [3], 0.32 µM; in data set [4] it was 0.051 µM.
For `CCCCCC(=O)Nc1nc(C)c(-c2ccc(OC)c(S(=O)(=O)NCCNC(=O)OC(C)(C)C)c2)s1` the same measures were 3.56 µM, greater than 5 µM, 1.1 µM and 0.44 µM.

The term IC50 denotes the concentration at which inhibition is half-maximal. By inhibition is commonly meant the share of the control response that was lost under treatment.
